# Values of other authors as cited in patent US20210127703A1, “FOOD PRODUCT USING AN IMPROVED SUGAR” (priority 2019, published 2021).
# Columns and labels:
# [1] = ingestion of 20 mg of THC in a chocolate cookie
# [2] = after application of a dermal patch
# [3] = transdermal; higher than for Δ8-THC
# [4] = in vivo
# [5] = tested on: liver microsomal drug-metabolizing enzymes; details: in vitro; inhibiting hexobarbital metabolism in humans
# [6] = tested on: CYP 2C
structure (smiles),measurement,setting,value
CCCCCc1cc(O)c2c(c1)OC(C)(C)[C@@H]1CCC(C)=C[C@@H]21 [THC],time of peak THC concentration following ingestion,[1],1 to 5 h
CCCCCc1cc(O)c2c(c1)OC(C)(C)[C@@H]1CC=C(C)C[C@@H]21 [Δ8-THC],duration steady-state plasma concentration maintained,[2],at least 48 h
same,mean steady-state plasma concentration,[2],4.4 ng/mL
same,time to steady-state plasma concentration,[2],≤ 1.4 h
CCCCCc1cc(O)c2c(c1)OC(C)(C)c1ccc(C)cc1-2 [CBN],permeability relative to Δ8-THC,[3],10 fold
"C=C(C)[C@@H]1CCC(C)=C[C@H]1c1c(O)cc(CCCCC)cc1O [CBD, cannabidiol]",excretion in the feces,[4],a large proportion of the dose is excreted unchanged in the feces
same,permeability relative to Δ8-THC,[3],10 fold
same,inhibition of liver microsomal drug-metabolizing enzymes,[5],in vitro inhibitor of liver microsomal drug-metabolizing enzymes
same,effect of CBD on pharmacokinetics of THC,"[6]; Hunt et al., except for a slight slowing of metabolism of 11-OH-THC to THC-COOH",not affected
same,inhibition of hydroxylation of THC to 11-OH-THC catalyzed by CYP 2C,[6]; oral THC alone compared to a THC and CBD preparation,only partially inhibited
